From ChEMBL document CHEMBL5380843 (J Med Chem, 2023)

Key:
[1] = Acute toxicity in 12 hr fasted male CD-1(ICR) mouse assessed as behavioral abnormalities at 2 g/Kg, IG measured after 14 days; conditions: in vivo, po, 2000 mg/kg, 336 h, time 14 day
[2] = Acute toxicity in 12 hr fasted female CD-1(ICR) mouse assessed as pathological damage in heart at 2 g/Kg, IG measured after 14 days by H and E staining based analysis; type: tissue-based; conditions: in vivo, po, 2000 mg/kg, 336 h, time 14 day
[3] = Acute toxicity in 12 hr fasted female CD-1(ICR) mouse assessed as pathological damage in spleen at 2 g/Kg, IG measured after 14 days by H and E staining based analysis; type: tissue-based; conditions: in vivo, po, 2000 mg/kg, 336 h, time 14 day
[4] = Cmax in Sprague-Dawley rat at 1 mg/kg, iv measured upto 24 hrs by LC-MS/MS analysis; type: ADME, organism-based; design: time < 24 hrs, dose 1 mg/kg, route iv; conditions: in vivo
Cytochrome P450 1A2 = molecular target: T1, Cytochrome P450 1A2 (Homo sapiens, UniProt P05177); test: Inhibition of CYP1A2 in human liver microsomes using phenacetin as substrate incubated for 15 to 45 mins in presence of NADPH; type: ADME, Microsome
T1 sequence (P05177 whole entry): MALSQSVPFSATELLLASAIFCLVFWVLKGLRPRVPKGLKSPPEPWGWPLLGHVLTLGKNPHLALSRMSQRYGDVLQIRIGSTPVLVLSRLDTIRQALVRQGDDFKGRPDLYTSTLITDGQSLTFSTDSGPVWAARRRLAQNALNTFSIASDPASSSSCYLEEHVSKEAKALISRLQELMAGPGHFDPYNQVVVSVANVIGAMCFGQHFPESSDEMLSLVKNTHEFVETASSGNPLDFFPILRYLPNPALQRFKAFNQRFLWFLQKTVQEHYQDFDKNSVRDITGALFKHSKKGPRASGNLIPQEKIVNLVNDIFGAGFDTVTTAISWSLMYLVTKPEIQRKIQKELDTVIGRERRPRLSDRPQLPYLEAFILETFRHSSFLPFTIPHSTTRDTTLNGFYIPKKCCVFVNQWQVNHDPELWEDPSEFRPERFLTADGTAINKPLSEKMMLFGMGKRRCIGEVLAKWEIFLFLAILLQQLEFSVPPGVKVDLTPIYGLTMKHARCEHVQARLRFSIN

[5] = Half life in Sprague-Dawley rat at 10 mg/kg, po measured upto 24 hrs by LC-MS/MS analysis; type: ADME, organism-based; conditions: in vivo
[6] = molecular target: Human immunodeficiency virus type 1 reverse transcriptase (Human immunodeficiency virus 1, UniProt Q72547); test: Inhibition of recombinant wild type HIV-1 reverse transcriptase using DNA/RNA as substrate incubated for 40 mins by Pico-green dye based spectrofluorometric analysis
[7] = AUC (0 to t) in Sprague-Dawley rat at 10 mg/kg, po measured upto 24 hrs by LC-MS/MS analysis; type: ADME, organism-based; design: dose 10 mg/kg, time < 24 hrs, route po; conditions: in vivo
[8] = Acute toxicity in 12 hr fasted female CD-1(ICR) mouse assessed as behavioral abnormalities at 2 g/Kg, IG measured after 14 days; conditions: in vivo, po, 2000 mg/kg, 336 h, time 14 day
[9] = Tmax in Sprague-Dawley rat at 1 mg/kg, iv measured upto 24 hrs by LC-MS/MS analysis; type: ADME, organism-based; conditions: in vivo
[10] = Acute toxicity in 12 hr fasted female CD-1(ICR) mouse assessed as pathological damage in liver at 2 g/Kg, IG measured after 14 days by H and E staining based analysis; type: tissue-based; conditions: in vivo, po, 2000 mg/kg, 336 h, time 14 day
[11] = Resistant factor, ratio of EC50 for antiviral activity against HIV-1 IIIB harboring reverse transcriptase Y181C mutant to EC50 for antiviral activity against wild type HIV-1 IIIB; type: functional
[12] = Acute toxicity in 12 hr fasted male CD-1(ICR) mouse assessed as pathological damage in heart at 2 g/Kg, IG measured after 14 days by H and E staining based analysis; type: tissue-based; conditions: in vivo, po, 2000 mg/kg, 336 h, time 14 day
[13] = system: Human immunodeficiency virus 1; test: Antiviral activity against wild type HIV-1 IIIB infected in human MT4 cells assessed as protection against virus-induced cytopathic effect incubated for 5 days by MTT assay; type: functional, organism-based; conditions: Human immunodeficiency virus 1, IIIB, MT4, 120 h
Cytochrome P450 2D6 = Cytochrome P450 2D6 (Homo sapiens, UniProt P10635); test: Inhibition of CYP2D6 in human liver microsomes using dextromethorphan as substrate incubated for 15 to 45 mins in presence of NADPH; type: ADME, Microsome
Cytochrome P450 2D6, sequence (P10635 whole entry): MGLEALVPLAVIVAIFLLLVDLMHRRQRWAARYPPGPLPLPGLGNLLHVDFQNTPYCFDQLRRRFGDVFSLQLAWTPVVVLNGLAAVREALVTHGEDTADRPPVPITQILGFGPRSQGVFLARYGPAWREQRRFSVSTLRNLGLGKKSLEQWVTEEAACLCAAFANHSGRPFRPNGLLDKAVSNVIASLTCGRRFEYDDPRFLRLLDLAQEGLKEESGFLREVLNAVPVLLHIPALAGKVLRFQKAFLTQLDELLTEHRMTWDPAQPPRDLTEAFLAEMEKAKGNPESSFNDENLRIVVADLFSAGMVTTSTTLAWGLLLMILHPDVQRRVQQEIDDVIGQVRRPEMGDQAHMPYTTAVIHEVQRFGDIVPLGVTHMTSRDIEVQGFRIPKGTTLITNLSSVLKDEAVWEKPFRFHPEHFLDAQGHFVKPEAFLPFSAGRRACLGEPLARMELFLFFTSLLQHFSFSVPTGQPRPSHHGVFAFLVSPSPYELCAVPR

[14] = system: Human immunodeficiency virus 1; test: Antiviral activity against wild type HIV-1 IIIB harboring reverse transcriptase E138K mutant infected in human MT4 cells assessed as protection against virus-induced cytopathic effect incubated for 5 days by MTT assay; type: functional, organism-based; conditions: Human immunodeficiency virus 1, IIIB, MT4, 120 h
[15] = Resistant factor, ratio of EC50 for antiviral activity against HIV-1 IIIB harboring reverse transcriptase K103N mutant to EC50 for antiviral activity against wild type HIV-1 IIIB; type: functional
[16] = Tmax in Sprague-Dawley rat at 10 mg/kg, po measured upto 24 hrs by LC-MS/MS analysis; type: ADME, organism-based; conditions: in vivo
[17] = Acute toxicity in 12 hr fasted male CD-1(ICR) mouse assessed as pathological damage in spleen at 2 g/Kg, IG measured after 14 days by H and E staining based analysis; type: tissue-based; conditions: in vivo, po, 2000 mg/kg, 336 h, time 14 day
[18] = AUC (0 to t) in Sprague-Dawley rat at 1 mg/kg, iv measured upto 24 hrs by LC-MS/MS analysis; type: ADME, organism-based; design: time < 24 hrs, dose 1 mg/kg, route iv; conditions: in vivo
[19] = Acute toxicity in 12 hr fasted male CD-1 (ICR) mouse assessed as death at 2 g/Kg, IG measured after 14 days; conditions: in vivo, po, 2000 mg/kg, 336 h, time 14 day
[20] = Resistant factor, ratio of EC50 for antiviral activity against HIV-1 IIIB harboring reverse transcriptase E138K mutant to EC50 for antiviral activity against wild type HIV-1 IIIB; type: functional
[21] = MRT (0 to t) in Sprague-Dawley rat at 10 mg/kg, po measured upto 24 hrs by LC-MS/MS analysis; type: ADME, organism-based; conditions: in vivo
[22] = Cmax in Sprague-Dawley rat at 10 mg/kg, po measured upto 24 hrs by LC-MS/MS analysis; type: ADME, organism-based; design: time < 24 hrs, dose 10 mg/kg, route po; conditions: in vivo
[23] = Acute toxicity in 12 hr fasted male CD-1(ICR) mouse assessed as changes in body weight at 2 g/Kg, IG measured after 14 days; conditions: in vivo, po, 2000 mg/kg, 336 h, time 14 day
[24] = Acute toxicity in 12 hr fasted female CD-1 (ICR) mouse assessed as death at 2 g/Kg, IG measured after 14 days; conditions: in vivo, po, 2000 mg/kg, 336 h, time 14 day
[25] = molecular target: Voltage-gated inwardly rectifying potassium channel KCNH2 (Homo sapiens, UniProt Q12809); test: Inhibition of hERG expressed in CHO cells by Qpatch assay; type: toxicity, cell-based
Voltage-gated inwardly rectifying potassium channel KCNH2, sequence (Q12809 whole entry): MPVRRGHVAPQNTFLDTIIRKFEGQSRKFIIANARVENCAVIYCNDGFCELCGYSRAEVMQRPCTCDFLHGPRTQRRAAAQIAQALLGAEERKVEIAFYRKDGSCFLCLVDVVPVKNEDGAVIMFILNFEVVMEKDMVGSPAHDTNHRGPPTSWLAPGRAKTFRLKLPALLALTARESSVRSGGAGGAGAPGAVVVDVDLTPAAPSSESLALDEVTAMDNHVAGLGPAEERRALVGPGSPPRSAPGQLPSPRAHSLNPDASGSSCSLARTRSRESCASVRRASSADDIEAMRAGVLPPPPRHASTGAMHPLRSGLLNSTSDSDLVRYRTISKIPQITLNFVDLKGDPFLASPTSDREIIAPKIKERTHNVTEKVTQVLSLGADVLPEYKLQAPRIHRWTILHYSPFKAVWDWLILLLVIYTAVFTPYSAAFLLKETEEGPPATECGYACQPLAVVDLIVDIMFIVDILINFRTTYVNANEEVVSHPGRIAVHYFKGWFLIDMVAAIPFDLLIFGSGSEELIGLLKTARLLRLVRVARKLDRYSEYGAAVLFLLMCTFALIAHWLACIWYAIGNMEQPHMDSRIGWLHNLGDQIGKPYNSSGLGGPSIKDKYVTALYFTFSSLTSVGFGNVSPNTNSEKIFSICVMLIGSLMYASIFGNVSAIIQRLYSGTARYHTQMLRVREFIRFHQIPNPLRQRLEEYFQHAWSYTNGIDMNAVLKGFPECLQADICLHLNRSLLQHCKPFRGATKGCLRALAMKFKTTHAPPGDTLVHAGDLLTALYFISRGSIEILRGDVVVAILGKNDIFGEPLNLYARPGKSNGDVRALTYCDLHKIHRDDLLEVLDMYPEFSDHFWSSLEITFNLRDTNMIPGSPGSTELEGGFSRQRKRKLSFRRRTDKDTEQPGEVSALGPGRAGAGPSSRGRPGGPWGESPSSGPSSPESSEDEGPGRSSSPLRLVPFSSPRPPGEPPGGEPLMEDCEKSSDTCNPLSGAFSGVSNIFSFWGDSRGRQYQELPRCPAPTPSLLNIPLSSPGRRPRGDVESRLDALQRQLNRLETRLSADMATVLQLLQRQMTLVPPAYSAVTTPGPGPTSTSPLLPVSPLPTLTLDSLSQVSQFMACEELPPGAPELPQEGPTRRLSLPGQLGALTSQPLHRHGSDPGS

[26] = MRT (0 to infinity) in Sprague-Dawley rat at 10 mg/kg, po measured upto 24 hrs by LC-MS/MS analysis; type: ADME, organism-based; conditions: in vivo
[27] = Resistant factor, ratio of EC50 for antiviral activity against HIV-1 IIIB harboring reverse transcriptase Y188L mutant to EC50 for antiviral activity against wild type HIV-1 IIIB; type: functional
[28] = Acute toxicity in 12 hr fasted male CD-1(ICR) mouse assessed as pathological damage in liver at 2 g/Kg, IG measured after 14 days by H and E staining based analysis; type: tissue-based; conditions: in vivo, po, 2000 mg/kg, 336 h, time 14 day
[29] = system: Human immunodeficiency virus 1; test: Antiviral activity against wild type HIV-1 IIIB harboring reverse transcriptase K103N mutant infected in human MT4 cells assessed as protection against virus-induced cytopathic effect incubated for 5 days by MTT assay; type: functional, organism-based; conditions: Human immunodeficiency virus 1, IIIB, MT4, 120 h
[30] = Cytotoxicity against human MT4 cells assessed as reduction in cell viability incubated for 5 days by MTT assay; type: toxicity, cell-based; conditions: time 5 day

CONC(=O)c1cnc(Nc2ccc(C#N)cc2)nc1Oc1c(C)cc(-c2ccc(C#N)cc2)cc1C
Activity [1]: Non-Toxic
Activity [2]: Non-Toxic
Activity [3]: Non-Toxic
Cmax [4]: 431 ng/mL
IC50 (Cytochrome P450 1A2): > 50000 nM
half-life [5]: 5.18 h
IC50 [6]: 47 nM
AUC(0-t) at 24 h [7]: 3570 ng·h/mL
Activity [8]: Non-Toxic
Tmax [9]: 4.98 min
Activity [10]: Non-Toxic
Ratio EC50 [11]: 13
Activity [12]: Non-Toxic
EC50 [13]: 2 nM
IC50 (Cytochrome P450 2D6): > 50000 nM
EC50 [14]: 6 nM
Ratio EC50 [15]: 3.5
Tmax [16]: 2 h
Activity [17]: Non-Toxic
AUC(0-t) at 24 h [18]: 1160 ng·h/mL
Activity [19]: Non-Toxic
Ratio EC50 [20]: 2.6
MRT last at 24 h [21]: 4.54 h
Cmax [22]: 616 ng/mL
Activity [23]: Non-Toxic
Activity [24]: Non-Toxic
IC50 [25]: > 40000 nM
MRT inf [26]: 5.21 h
Ratio EC50 [27]: 23
Activity [28]: Non-Toxic
EC50 [29]: 8 nM
CC50 at 120 h [30]: > 40800 nM
